Reference: publication PMC12004446, “Inhibition by 4-(4-Bromo-2-oxo-3H-benzimidazol-1-yl)-N-(4-iodophenyl)piperidine-1-carboxamide (TH5487) of the Activity of Human 8-Oxoguanine DNA Glycosylase-1 (OGG1) for the Excision of 2,6-Diamino-4-hydroxy-5-formamidopyrimidine, 4,6-Diamino-5-formamidopyrimidine, and 8-Oxoguanine from Oxidatively …” (Biochemistry, 2025)

Target: T1, human 8-oxoguanine DNA glycosylase-1 (hOGG1) (Homo sapiens, UniProt O15527)
T1 construct: gene OGG1
Assay: fluorescence-based 8-oxo-Gua duplex oligodeoxynucleotide incision assay with purified hOGG1; also GC-MS/MS of lesion excision from genomic DNA
Type: biochemical

T1 sequence (O15527 whole entry): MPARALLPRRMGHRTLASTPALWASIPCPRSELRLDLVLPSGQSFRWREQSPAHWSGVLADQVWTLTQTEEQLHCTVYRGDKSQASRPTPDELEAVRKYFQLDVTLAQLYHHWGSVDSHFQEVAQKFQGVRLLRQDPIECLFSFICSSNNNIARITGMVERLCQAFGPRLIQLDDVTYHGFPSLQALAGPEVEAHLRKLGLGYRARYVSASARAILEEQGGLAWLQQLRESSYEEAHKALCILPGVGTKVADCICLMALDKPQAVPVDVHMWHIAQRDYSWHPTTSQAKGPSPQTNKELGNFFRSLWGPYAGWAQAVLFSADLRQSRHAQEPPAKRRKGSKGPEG

IC50: 800 nM
Structure (SMILES): O=C(Nc1ccc(I)cc1)N1CCC(n2c(=O)[nH]c3c(Br)cccc32)CC1 [TH5487, 4-(4-bromo-2-oxo-3H-benzimidazol-1-yl)-N-(4-iodophenyl)piperidine-1-carboxamide]
